This note sets out measurements from patent publication US8513270B2, “Substituted heterocycles as Janus kinase inhibitors” (Incyte Corporation, priority 2006, dated 2013).

Like-named read-outs stand apart in the source and are kept apart here. A value given as a limit tells only on which side of the number the result lay.

Test [1] addresses T1, human JAK1 (a.a. 837-1142) (Homo sapiens, UniProt P23458).
T1 construct: human JAK1 (a.a. 837-1142); His tag (N); made in house; host or cells: insect cells (baculovirus)
In words: In vitro JAK kinase assay (HTRF), JAK1. The note with it: JAK1, 90 μM ATP; read-out: EXAMPLE A JAK2-JAK1 HTRF-2 IC50. Type of test: biochemical. Summed up:
(§1)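 His-tagged catalytic domains from baculovirus-infected insect cells phosphorylated 500 nM biotinylated peptide in 50 mM Tris pH 7.8, 100 mM NaCl, 5 mM DTT, 0.01% BSA for 1 h at room temperature. ATP was 90 μM (JAK1), 30 μM (JAK2), 3 μM (JAK3). Detection used Eu-Py20/SA-APC; IC50s were derived.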
A general note: TR-FRET usually uses a lanthanide donor and a delayed reading to cut background.

A further test deals with T2, ABL1 kinase (wild-type) (Homo sapiens, UniProt P00519).
T2 construct: The catalytic domains of ABL1 kinases (residues 27 to the C-termini) were N-terminal His tagged; His tag (N); purchased Upstate Cell Signaling Solutions; host or cells: insect cells (baculovirus)
Kind of test: ABL1 HTRF assay (wild-type). The note with it: 35 μM ATP; read-out: EXAMPLE G WT Abl IC50. Type of test: biochemical. As to the method:
(§2) Compounds herein described were tested for inhibitory activity of ABL1 kinase (wild-type and T315I mutant) as described below. The catalytic domains of ABL1 kinases (residues 27 to the C-termini) were N-terminal His tagged and expressed by baculovirus in insect cells and purified. These were purchased in purified form from Upstate Cell Signaling Solutions. ABL1 and T315I ABL1 catalyze the phosphorylation of p28. The phosphorylated p28 is detected by Homogeneous Time Resolved Fluorescence (HTRF). IC50s of compounds were measured for each kinase in the reactions that contain: 1-2 nM ABL1 or T315I ABL1, 500 nM peptide, 35 μM ATP for ABL1 and 10 μM ATP for T315I ABL1, 2.0% DMSO in assay buffer containing 50 mM Tris, pH 7.8, 100 mM NaCl, 10 mM MgCl2, 5 mM DTT, 0.6 mg/mL BSA. Reactions proceed at room temperature for one and half hour and were stopped by adding, 20 μL additional 50 mM NaCl, 0.4 mg/mL BSA, 45 mM EDTA, 200 nM SA-APC, 4 nM Eu—Py20 in assay buffer. The plates were incubated at room temperature for 40 min and HTRF was then measured on a plate reader.

The target of another test is T3, T315I ABL1 (Homo sapiens, UniProt P00519, T315I).
T3 construct: The catalytic domains of ABL1 kinases (residues 27 to the C-termini) were N-terminal His tagged; His tag (N); purchased Upstate Cell Signaling Solutions; host or cells: insect cells (baculovirus)
In words: T315I ABL1 HTRF assay. It is filed as biochemical. The note with it: 10 μM ATP; read-out: EXAMPLE G T315I Abl IC50. As to the method: as §2

The target in another test is TF1-BCRABL1 cells (Homo sapiens, UniProt P00519). Kind of test: ABL1 cell based assay: viability of ABL1-dependent cell line (CellTiter-Glo). An outline of the steps:
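ABL1-dependent cells plated at 3000 per well in RPMI 1640 with 10% FBS and exposed to compounds for 72 h at 37° C, 5% CO2, 0.2% DMSO final. Viability read by CellTiter-Glo luminescence; duplicate or more.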
In general terms: In ATP-based viability assays light output follows the ATP content of the culture.

The target in test [2] is T4, human JAK2 (a.a. 828-1132) (Homo sapiens, UniProt O60674).
T4 construct: JAK2 (a.a. 828-1132); His tag (N); made in house; host or cells: insect cells (baculovirus)
In words: In vitro JAK kinase assay (HTRF), JAK2. It is filed as biochemical. The note with it: JAK2, 30 μM ATP; read-out: EXAMPLE A HTS-JAK2 HTRF-2 IC50. An outline of the steps:
as §1

For test [3], the target named is T5, human JAK3 (a.a. 781-1124) (Homo sapiens, UniProt P52333).
T5 construct: JAK3 (a.a. 781-1124); His tag (N); made in house; host or cells: insect cells (baculovirus)
In words: In vitro JAK kinase assay (HTRF), JAK3. Type of test: biochemical. The note with it: JAK3, 3 μM ATP; read-out: EXAMPLE A JAK2-JAK3 HTRF-2 IC50. An outline of the steps:
as §1

For test [4], the system named is JAK2_INA61 (cancer cell line dependent on cytokines and JAK/STAT signal transduction). Kind of test: Cellular assay: viability of cytokine-dependent cancer cell line (CellTiter-Glo). It is filed as cell-based. The note with it: 72 hours, read-out: EXAMPLE B JAK2_INA61 IC50. As to the method:
One or more compounds herein were tested for inhibitory activity of JAK targets according to at least one of the following cellular assays.
Compounds were added to the cells in DMSO/media (final concentration 0.2% DMSO) and incubated for 72 hours at 37° C., 5% CO2. The effect of compound on cell viability was assessed using the CellTiter-Glo Luminescent Cell Viability Assay (Promega) followed by TopCount (Perkin Elmer, Boston, Mass.) quantitation. Potential off-target effects of compounds were measured in parallel using a non-JAK driven cell line with the same assay readout. […] All experiments were performed in duplicate.

The mark [5] stands for this setting: 72 hours, cell viability, read-out: EXAMPLE F JAK2-TF1-BCRABL1 IC50.
The mark [6] stands for this setting: TF1_BCRABL cells, read-out: EXAMPLE H TF1_BCRABL IC50.

T5 sequence (P52333 781-1124): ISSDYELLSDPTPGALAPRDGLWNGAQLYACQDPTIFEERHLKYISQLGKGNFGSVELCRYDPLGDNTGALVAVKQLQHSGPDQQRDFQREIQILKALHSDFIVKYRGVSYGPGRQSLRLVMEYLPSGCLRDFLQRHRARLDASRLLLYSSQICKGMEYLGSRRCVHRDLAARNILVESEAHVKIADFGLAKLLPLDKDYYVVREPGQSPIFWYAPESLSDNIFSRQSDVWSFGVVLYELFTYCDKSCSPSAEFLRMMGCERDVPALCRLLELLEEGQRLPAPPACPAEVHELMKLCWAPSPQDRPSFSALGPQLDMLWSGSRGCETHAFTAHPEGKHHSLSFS
T1 sequence (P23458 849-1154): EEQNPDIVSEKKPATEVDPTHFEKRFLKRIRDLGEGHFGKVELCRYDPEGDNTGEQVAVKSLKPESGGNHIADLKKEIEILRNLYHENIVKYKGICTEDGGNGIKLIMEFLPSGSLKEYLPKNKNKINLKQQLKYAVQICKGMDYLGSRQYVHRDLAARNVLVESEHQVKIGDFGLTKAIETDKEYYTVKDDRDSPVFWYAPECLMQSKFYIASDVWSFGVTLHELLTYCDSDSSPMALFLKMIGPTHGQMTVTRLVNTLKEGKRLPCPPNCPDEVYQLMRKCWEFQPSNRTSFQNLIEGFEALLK
T4 sequence (O60674 828-1132): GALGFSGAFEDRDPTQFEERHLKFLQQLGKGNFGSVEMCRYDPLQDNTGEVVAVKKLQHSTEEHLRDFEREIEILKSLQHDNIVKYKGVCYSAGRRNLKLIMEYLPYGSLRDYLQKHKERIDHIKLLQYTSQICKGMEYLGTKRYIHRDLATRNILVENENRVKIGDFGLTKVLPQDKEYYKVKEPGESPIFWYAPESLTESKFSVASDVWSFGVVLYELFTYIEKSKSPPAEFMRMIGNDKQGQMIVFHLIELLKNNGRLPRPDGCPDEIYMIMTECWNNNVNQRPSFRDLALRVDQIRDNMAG

Broadly, the IC50 is the point on the concentration scale where inhibition reaches its midpoint. Consider `Cc1ccc(NC(=O)c2cc(N3CCN(C)CC3)cc(C(F)(F)F)c2)cc1-c1ccc2c(c1)[nH]c1ncncc12` [Example 26, 3-(4-Methylpiperazin-1-yl)-N-[4-methyl-3-(9H-pyrimido[4,5-b]indol-7-yl)phenyl]-5-(trifluoromethyl)benzamide bis(trifluoroacetate)], for which the IC50 was not above 500 nM in test [1]; less than 200 nM on ABL1 kinase (wild-type); less than 190 nM at T315I ABL1; not above 500 nM in test [2]; not above 500 nM in test [3]. The GI50 is not above 500 nM at TF1-BCRABL1 cells (setting [5]) and less than 180 nM on TF1-BCRABL1 cells (setting [6]).

In the case of `Cc1ccc(NC(=O)c2cccc(C(F)(F)F)c2)cc1-c1ccc2[nH]c3ncncc3c2c1` [Example 40, N-[4-Methyl-3-(9H-pyrimido[4,5-b]indol-6-yl)phenyl]-3-(trifluoromethyl)benzamide], the IC50 in test [1] is not above 500 nM; on ABL1 kinase (wild-type), less than 200 nM; at T315I ABL1, less than 190 nM; in test [4], not above 500 nM; in test [2], not above 500 nM; in test [3], 500 to 1000 nM. Besides, the GI50 on TF1-BCRABL1 cells (setting [5]) was not above 500 nM; on TF1-BCRABL1 cells (setting [6]) it was less than 180 nM.

For the compound `Cc1ccc(C(=O)Nc2cccc(C(F)(F)F)c2)cc1-c1ccc2c(c1)[nH]c1ncncc12` [Example 52, 4-methyl-3-(9H-pyrimido-[4,5-b]indol-7-yl)-N-[3-(trifluoromethyl)phenyl]benzamide], the IC50 is not above 500 nM in test [1]; less than 200 nM on ABL1 kinase (wild-type); less than 190 nM on T315I ABL1; 500 to 1000 nM in test [4]; not above 500 nM in test [2]; not above 500 nM in test [3]. Further, the GI50 at TF1-BCRABL1 cells (setting [5]) is not above 500 nM; on TF1-BCRABL1 cells (setting [6]), less than 180 nM.

With `O=C(Nc1cccc(C(F)(F)F)c1)c1ccc(Cl)c(-c2ccc3c(c2)[nH]c2ncncc23)c1` [Example 58, 4-chloro-3-(9H-pyrimido-[4,5-b]indol-7-yl)-N-[3-(trifluoromethyl)phenyl]-benzamide], the IC50 in test [1] was not above 500 nM; on ABL1 kinase (wild-type), less than 200 nM; at T315I ABL1 it was less than 190 nM; in test [4], 500 to 1000 nM; in test [2] it was not above 500 nM; in test [3] it was not above 500 nM. The GI50 at TF1-BCRABL1 cells (setting [5]) was not above 500 nM; on TF1-BCRABL1 cells (setting [6]), less than 180 nM.

Take `Cc1ccc(C(=O)Nc2cncc(C(F)(F)F)c2)cc1-c1ccc2c(c1)[nH]c1ncncc12` [Example 66, 4-Methyl-3-(9H-pyrimido[4,5-b]indol-7-yl)-N-[5-(trifluoromethyl)pyridin-3-yl]-benzamide]: the IC50 in test [1] was not above 500 nM; at ABL1 kinase (wild-type) it was less than 200 nM; at T315I ABL1, less than 190 nM; in test [4] it was 500 to 1000 nM; in test [2], not above 500 nM; in test [3], not above 500 nM. For the same compound, the GI50 on TF1-BCRABL1 cells (setting [5]) was not above 500 nM; at TF1-BCRABL1 cells (setting [6]), less than 180 nM.

Turning to `Cc1ncc(NC(=O)c2cccc(C(F)(F)F)c2)cc1-c1ccc2c(c1)[nH]c1ncncc12` [Example 70, N-[6-methyl-5-(9H-pyrimido[4,5-b]indol-7-yl)pyridin-3-yl]-3-(trifluoromethyl)benzamide], the IC50 is not above 500 nM in test [1], 500 to 1000 nM in test [4], not above 500 nM in test [2] and not above 500 nM in test [3]. Further, the GI50 on TF1-BCRABL1 cells (setting [5]) is not above 500 nM.
